Test results as given in ChEMBL document CHEMBL1151674, “Oscillapeptin G, a tyrosinase inhibitor from toxic Oscillatoria agardhii” (J Nat Prod, 1996).

Target: T1, Tyrosinase (Homo sapiens) (UniProt P14679)
T1 sequence (whole entry): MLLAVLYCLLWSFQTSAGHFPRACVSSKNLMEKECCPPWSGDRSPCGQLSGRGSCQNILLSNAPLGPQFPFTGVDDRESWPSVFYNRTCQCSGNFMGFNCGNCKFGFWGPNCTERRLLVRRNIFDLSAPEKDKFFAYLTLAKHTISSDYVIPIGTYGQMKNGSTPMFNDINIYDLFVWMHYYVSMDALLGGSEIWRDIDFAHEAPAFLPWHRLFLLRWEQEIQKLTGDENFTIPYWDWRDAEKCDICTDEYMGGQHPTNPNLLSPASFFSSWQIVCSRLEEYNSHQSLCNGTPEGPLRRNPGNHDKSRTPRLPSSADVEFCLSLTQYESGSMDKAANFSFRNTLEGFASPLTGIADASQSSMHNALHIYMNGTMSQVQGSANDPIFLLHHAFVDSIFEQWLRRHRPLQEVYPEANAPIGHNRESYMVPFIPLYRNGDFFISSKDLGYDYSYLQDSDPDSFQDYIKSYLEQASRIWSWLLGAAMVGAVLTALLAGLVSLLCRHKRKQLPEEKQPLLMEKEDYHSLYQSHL
Assay: Inhibition of tyrosinase-mediated formation of melanin from tyrosine at 100 uM relative to control

CC[C@H](C)[C@@H]1NC(=O)[C@H](Cc2ccc(O)cc2)N(C)C(=O)[C@H]([C@H](C)O)N2C(=O)[C@H](CC[C@H]2O)NC(=O)[C@H](CC(C)C)NC(=O)[C@@H](NC(=O)[C@H](CCC(N)=O)NC(=O)[C@H](CCc2ccc(O)cc2)NC(=O)[C@H](O)CO)[C@@H](C)OC1=O
inhibition: 55%
